The test system of data set [1] is HD patient-iPS cell derived neurons. The experiment in a line: Neurite length of DARPP-32/Tuj1-positive medium spiny neurons. The data set is classed as cell-based, human. The following applies: DARPP-32/Tuj1-positive neurons, 1 μM per day for 5 days versus TAT. The method, then: iPS cells from a normal subject and a HD patient (carrying 41 CAG repeats) were differentiated into neurons using the protocol from our previous studies. Briefly, iPS cells were plated onto 6-well plates precoated with 2.5% Matrigel and allowed to reach 90% confluence in feeder-free medium. For the first 10 days, cells were treated with SB431542 (10 μM; Tocris Bioscience) and Noggin (100 ng/ml) in Neural Media (NM) containing Neurobasal and DMEM (1:1), B27 supplement minus vitamin A (50 × , Invitrogen), N2 supplement (100 × , Invitrogen), GlutaMax (Invitrogen, 100 × ), FGF2 ([…]) and EGF ([…]), 100 units per ml penicillin and 100 μg ml^−1 streptomycin). For the next 10 days, cells were treated with human recombinant Sonic hedgehog (SHH, 200 ng/ml), DKK1 (100 ng/ml) and BDNF (20 ng/ml) and 10 μM Y27632 (Sigma) in neuronal differentiation medium containing Neurobasal and DMEM (1:3), B27, N2, GlutaMax and PS. […]
In patient-iPS cell-derived neurons, to ensure the observation of mitochondria in the medium spiny neurons, the cells were stained with a mitochondrial marker (anti-TOM20, 1:500) and markers for medium spiny neurons (DARPP-32, 1:200, Epitomics). The quantitation of neurite length was conducted only in the neurons immunopositive for both DARPP-32 and Tuj1 (neuron-specific class III beta-tubulin, 1:5,000, Covance). At least 50 neurons/group were counted.

Data set [2] relates to HdhQ111 / HdhQ7 mouse striatal cells. In words: Mitochondrial morphology, anti-Tom20 staining. In kind it is cell-based. The method, then: Figure 4 HV-3 treatment reduces mitochondrial damage and cell death in HD cell cultures. Mouse HdhQ7 and HdhQ111 striatal cells were treated with control peptide TAT or peptide HV-3 (3 uM/day for 3 days). (a) Left panel: Mitochondrial membrane potential (MMP) was determined by TMRM fluorescent dye. Right panel: HdhQ111 cells were transfected with control siRNA (siCon) and VCP siRNA (siVCP) for three days. The MMP was determined by TMRM in HdhQ111 cells treated with TAT or HV-3. (b) Mitochondrial morphology was determined by staining cells with anti-Tom20 antibody. Scale bar: 10 μm. The percentage of cells with fragmented mitochondria relative to the total number of cells was quantitated. At least 100 cells per group were counted. (c) Mitochondrial morphology was determined by EM. The length of mitochondria and the number of mitophagosomes were quantitated. At least 90 mitochondria per group were counted. […] HMGB1 release into culture medium was determined by IB analysis with anti-HMGB1 antibody. […] Cell death was determined by the release of LDH. […] (g) Quantitation of neurite length of medium spiny neurons. At least 50 neurons per group were counted by an observer blind to experimental conditions. (h) Left: the MMP was determined by TMRM fluorescent dye. […] Mitochondrial length along neurites of DARPP32/Tuj1-positive neurons was quantitated. […]

In data set [3] the test system is C57Black mice. In words: Hematology of naive mice. The data set is classed as in vivo, mouse. The following applies: 3 mg/kg/day, 4 weeks. The method, then:
Supplementary Figure 8 : Toxicity analysis of HV -3in naïve mice .
We performed a toxicity analysis of HV-3 in mice. Six -week-old C57Black mice were treated with saline or peptide HV-3 at 3mg/kg/day by Alzet pump implantation. After 4- week treatment, the plasma, blood and whole mouse bodies of mice were collected. Examination on blood chemistry (Supplementary Table 1), hematology (Supplementary Table 2) and general necropsy of mice were performed at the Animal Diagnostic Laboratory at Stanford University. The experimenter who conducted the analysis was blind to the treatment groups. Automated hematology was performed on the Sysmex XT-2000iV analyzer system. Blood smears were made for all full CBC samples and reviewed by a medical technologist. Manual differentials were performed as indicated by species and automated analysis. Chemistry analysis was performed on the Siemens Dimension Xpand analyzer. […]
Student’s t test. Four-week sustained treatment with HV-3 by pump implantation had no effects on blood chemistry (Supplementary Table 1), hematology (Supplementary Table 2), and gross necropsy of naïve mice when compared to mice treated with saline. […]
Table 2: Effects of 4-w eek treatment w ith HV-3 on hematology of naïve mice […]
Mean SD Mean SD p-value unit n

For `CSCC[C@H](NC(=O)[C@@H](NC(=O)[C@H](CC(C)C)NC(=O)[C@@H](NC(=O)[C@H](Cc1c[nH]cn1)NC(=O)CCCCCNC(=O)[C@H](CCCNC(=N)N)NC(=O)[C@H](CCCNC(=N)N)NC(=O)[C@H](CCCNC(=N)N)NC(=O)[C@H](CCC(N)=O)NC(=O)[C@H](CCCNC(=N)N)NC(=O)[C@H](CCCNC(=N)N)NC(=O)[C@H](CCCCN)NC(=O)[C@H](CCCCN)NC(=O)[C@H](CCCNC(=N)N)NC(=O)CNC(=O)[C@@H](N)Cc1ccc(O)cc1)C(C)C)C(C)C)C(=O)N[C@@H](CS)C(=O)N[C@@H](C)C(=O)N[C@H](C(N)=O)[C@@H](C)O` [HV-3], the neurite shortening result in data set [1] is reported as “reduced neurite shortening”. Moreover, the fragmented mitochondria entry in data set [2] (HdhQ111 cells, 3 uM/day for 3 days, anti-Tom20) is on record as “reduced the number of fragmented mitochondria”. In addition, the “mitochondrial morphology, wt” value in data set [2] (wt counterparts of the HD models) is given as “only minor effects”. In data set [3] (mean, n = 4/group), this compound displayed an Eosinophils of 37.00, an HCT of 44.60%, a Hgb of 13.93 gm/dL and an IRF of 53.97%. In data set [3] (mean, n = 4/group), this compound gave a Lymphocytes of 1645.00, an MCH of 14.90 pg, an MCHC of 31.27 g/dL and an MCV of 47.67 fL. Also, in data set [3] (mean, n = 4/group), the Monocytes is reported as 182.33, the Neutrophils is given as 1525.67, the Platelet count stood at 1021.33 K/uL and the RBC was 9.37 M/uL. Further, in data set [3] (mean, n = 4/group), the RDW was determined as 21.77%, the “Reticulocyte Count” value amounted to 4.30% and the WBC is recorded as 3.39 K/uL. Besides, the “hematology (overall)” value in data set [3] (versus saline) was “no effects”.

These data come from article PMC5007466, “VCP recruitment to mitochondria causes mitophagy impairment and neurodegeneration in models of Huntington's disease” (Nature Communications, 2016).
